According to patent publication US12109266B2, “Modulating gabarap to modulate immunogenic cell death” (Dana-Farber Cancer Institute, Inc., priority 2020, dated 2024):
Entries after “also recorded” stand apart in the source; their conditions may differ.

Tests used:
[1] = system: naive T cells; test: Analysis of naive T cell proliferation; assay type: cell-based, human; conditions: 5 day co-culture with BTZ-treated AMO1 or NCI-H929 cells and DCs
Description: DCs were generated from healthy donors PBMCs as described above (“Generation of Mo-DCs” section). Naïve T cells were negatively selected from CD14-PBMCs from the same donors using the Naive Pan T Cell Isolation Kit (Miltenyi Biotec) and frozen. When DCs were generated, either untreated or BTZ-treated multiple myeloma cells were co-cultured with DCs and naïve T cells labeled with CellTrace™ Violet Cell Proliferation Kit (ThermoFisher Scientific) for 5 days. Naïve T cells were also cultured in the absence of multiple myeloma cells and in the presence of phytohemagglutinin (PHA) (20 ug/ml) as positive control. Before analysis, cells were stained with: CD8-FITC (#344704), CD4-PerCP/Cyanine5.5 (#317428) (BioLegend); and LIVE/DEAD™ Fixable Aqua dead Cell Stain (#L34966) (ThermoFisher Scientific). Proliferating CD4 and CD8 T cell subsets were then analyzed using the FlowJo software (Becton, Dickinson & Company).

[2] = system: type-I IFN response in AMO1 and NCI-H929 MM cells; test: Type-I IFN response in MM cells (RNA-seq, qRT-PCR, ELISA); assay type: cell-based, human; conditions: BTZ 5 nM
Description: Total RNA from multiple myeloma cells was prepared with TRIzol™ (ThermoFisher Scientific) and RNA Clean and Concentrator™-5 kit (Zymo Research) following the product instructions. RNA integrity and quantity was assessed by NanoDrop Spectrophotometer (ThermoFisher Scientific). For analysis of mRNA expression, oligo-dT-primed cDNA was obtained using the High Capacity cDNA Reverse Transcription Kit (ThermoFisher Scientific), and used as template to quantify: human and murine IFNA1 (Hs03044218_g1, Mm03030145_gH), human and murine IFNB1 (Hs01077958_s1, Mm00439552_s1), human and murine CXCL9 (Hs00171065_ml, Mm00434946_ml), and human and murine GAPDH (Hs02786624_g1, Mm99999915_g1). Analysis was determined by RT-PCR using TaqMan®Fast Universal PCR Master Mix on a 7500 Fast Real-Time PCR System (ThermoFisher Scientific). Comparative RT-PCR was performed in triplicate. Relative expression was calculated using the comparative […] (Ct) method.
AMO1^WT and STING^KO cells were either untreated or treated with BTZ for 24 h. Supernatant was collected, and secretion of CXCL9 chemokines was analyzed by MIG (CXCL9) Human Instant ELISA™ Kit (#BMS285INST, ThermoFisher Scientific).
AMO1 WT and STING^KO were cultured for 16 h in the presence of absence of BTZ (5 nM). RNA was extracted as previously described and submitted to NovaSeq RNAseq analysis followed by VIPER NGS Analysis pipeline (Cornwell et al. (2018) BMC Bioinformatics; 19(1):135). Lists of DEGs were applied to the GSEA software. RNAseq data have been submitted to Gene Expression Omnibus (accession number: GSE171837).

[3] = system: cGAS/STING pathway; test: Western blot of cGAS/STING pathway; assay type: cell-based, human
Description: Cell lysis was performed in RIPA buffer (Boston Bio Products) supplemented with Halt protease and phosphatase inhibitor cocktail (ThermoFisher Scientific). SDS-PAGE was performed on NuPage Bis-Tris gels (ThermoFisher Scientific) using MOPS or MES running buffer. Gels were dry transferred onto 0.45 μm nitrocellulose membranes using the iBlot® Dry Blotting System (ThermoFisher Scientific). The following Abs were purchased from Cell Signaling Technology: EIF2A (#5324), p-EIF2A (#3398), ATF4 (#11815), CHOP (2895), CALR (#12238), cGAS (#15102), TBK1 (#3504), pTBK1 (#5483), pIRF3 (#29047), STING (#13647). GAPDH (#2118) and B-ACTIN (#4970) were used as loading controls.

[4] = system: 5TGM1 cells; test: In vivo rechallenge of viable 5TGM1 cells in BTZ-treated mice; design: species or system mouse
Description: C57BL/KaLwRijHsd mice bearing 5TGM1 WT tumors were treated with BTZ as above. 2 weeks after observation of tumor regression, treated (n=5) as well as naïve mice (n=5), were rechallenged with viable 1×10^6 5TGM1 WT cells, and tumor growth was monitored over time. In a parallel experiment, spleens were harvested 2 weeks after tumor rechallenge from both groups to test T cell specific reactivity against multiple myeloma cell by ELISPOT assay (Translational Immunogenomics Laboratory, DFCI).

[5] = system: human DCs; test: DCs maturation assay; assay type: cell-based
Description: Immature DCs were generated as described above (“Generation of Mo-DCs” section). DCs were cultured alone or with untreated or BTZ pretreated-AMO1 (5 nM) for 24 h. DCs alone were cultured i) without maturation stimuli; ii) with 50 ng/ml of TNFalpha (Millipore Sigma); or iii) with 5 nM of BTZ. After 24 h, cells were harvested and analyzed by flow cytometry using the following Abs: anti-CD83-APC (#551073), CD86-FITC (#555657) and 7-AAD from BD Biosciences and CD11c-BV650 (#563404, Biolegend). Dead cells were excluded by 7-AAD positivity, and CD83 and CD86 expression was evaluated on CD11c+ cells.

**Q.** CC(C)C[C@H](NC(=O)[C@H](Cc1ccccc1)NC(=O)c1cnccn1)B(O)O [BTZ, bortezomib] was tested. Which “proliferation of CD4+ and CD8+ naive T cells” value [1] did it give?
**A.** increased proliferation of both CD4+ and CD8+ naïve T cells; also recorded: promotes proliferation of CD4+ and CD8+ naïve T cells

**Q.** And the “type-I IFN response gene sets (RNA-seq)” value ([2]; AMO1, 16 h)?
**A.** positive enrichment of gene sets included in the type-I IFN response hallmark signature; also recorded: MM cells engage in a type I IFN response after treatment with BTZ

**Q.** What about the “CXCL9 transcript and secreted CXCL9 (ELISA)” value ([2]; AMO1 STING^KO) of the same compound?
**A.** neither CXCL9 transcript or its secreted form were detected

**Q.** And the “type-I IFN response (RNA-seq; IFNA1, IFNB1 qRT-PCR)” value ([2]; AMO1 STING^KO)?
**A.** did not activate transcription of genes in the IFNs response or increase the levels of IFNA1 and IFNB1 transcripts; also recorded: STING dependent

**Q.** What about the “IFNA1, IFNB1 and CXCL9 transcripts (qRT-PCR)” value ([2]; AMO1 and NCI-H929, 16 h) of the same compound?
**A.** increased IFNA1, IFNB1 and CXCL9 transcripts

**Q.** What about the “cGAS/STING pathway activation (cGAS, pTBK1, pIRF3)” value ([3]; AMO1 (BTZ 5-10 nM, 16 h) and NCI-H929 WT) of the same compound?
**A.** induces accumulation of the cytosolic DNA sensor cGAS; also recorded: induces IFN-I signaling and promotes T cell activation via cGAS/STING pathway

**Q.** And the cGAS level ([3]; AMO1 STING^KO, BTZ 5 nM)?
**A.** significantly accumulated cGAS

**Q.** What about the p-TBK1 downstream signaling ([3]; AMO1 STING^KO, BTZ 5 nM) of the same compound?
**A.** blocked activation of downstream signaling including p-TBK1

**Q.** And the “mice alive at the end of observation” value ([4]; day 30 after rechallenge)?
**A.** 100%

**Q.** What about the “tumor development after rechallenge” value ([4]; live 5TGM1 WT injected two weeks after BTZ-induced tumor regression) of the same compound?
**A.** did not result in tumor development

**Q.** And the “expression of CD83 and CD86 maturation markers on DCs” value ([5]; 24 h co-culture with BTZ (5 nM) pretreated AMO1)?
**A.** higher expression of CD86/CD83 on cell surface; also recorded: increased expression of CD83 and CD86 maturation markers

**Q.** What about the “expression of CD83 and CD86 maturation markers on DCs” value ([5]; DCs with BTZ alone (5 nM), no MM cells) of the same compound?
**A.** not triggered by either untreated multiple myeloma cells or BTZ alone
